Assay results from ChEMBL document CHEMBL1938230, “6-Position optimization of tricyclic 4-quinolone-based inhibitors of glycogen synthase kinase-3β: discovery of nitrile derivatives with picomolar potency” (Bioorg Med Chem Lett, 2012).
≈ marks a conversion by molar mass, not a printed value.

Columns and labels:
[1] = target: 1-phosphatidylinositol 3-phosphate 5-kinase (Homo sapiens) (UniProt Q9Y2I7); experiment: Inhibition of human PIP5K3 in HL-60 cells lysate assessed as reduction of labeling of acyl-phosphate ATP probe at 100 nM; format: cell-free
[2] = target: Serine/threonine-protein kinase SMG1 (Homo sapiens) (UniProt Q96Q15); experiment: Inhibition of human SMG1 in HL-60 cells lysate assessed as reduction of labeling of acyl-phosphate ATP probe at 100 nM; format: cell-free
[3] = target: T1, Inhibitor of nuclear factor kappa-B kinase subunit epsilon (Homo sapiens) (UniProt Q14164); experiment: Inhibition of human IKKepsilon in HL-60 cells lysate assessed as reduction of labeling of acyl-phosphate ATP probe at 100 nM; format: cell-free
T1 sequence (whole entry): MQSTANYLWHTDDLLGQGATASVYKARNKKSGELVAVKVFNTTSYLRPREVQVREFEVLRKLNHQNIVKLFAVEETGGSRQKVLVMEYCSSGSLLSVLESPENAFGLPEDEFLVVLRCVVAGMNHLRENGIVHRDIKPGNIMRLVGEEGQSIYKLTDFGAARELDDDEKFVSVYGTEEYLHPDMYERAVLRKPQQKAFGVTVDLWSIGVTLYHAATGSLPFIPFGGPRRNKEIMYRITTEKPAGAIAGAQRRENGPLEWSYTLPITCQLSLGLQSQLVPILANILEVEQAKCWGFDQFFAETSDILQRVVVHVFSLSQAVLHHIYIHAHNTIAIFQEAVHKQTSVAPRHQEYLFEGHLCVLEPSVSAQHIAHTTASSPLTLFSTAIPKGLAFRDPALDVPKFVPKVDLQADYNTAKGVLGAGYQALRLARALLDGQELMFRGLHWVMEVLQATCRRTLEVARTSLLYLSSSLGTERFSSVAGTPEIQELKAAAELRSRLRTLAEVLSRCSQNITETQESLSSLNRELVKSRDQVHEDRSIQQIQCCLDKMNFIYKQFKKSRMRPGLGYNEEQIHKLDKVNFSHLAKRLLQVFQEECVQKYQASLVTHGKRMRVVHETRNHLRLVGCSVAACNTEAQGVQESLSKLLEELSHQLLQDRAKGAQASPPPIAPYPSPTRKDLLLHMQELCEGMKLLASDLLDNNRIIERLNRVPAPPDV

[4] = target: Serine/threonine-protein kinase PLK1 (Homo sapiens) (UniProt P53350); experiment: Inhibition of human PLK1 in HL-60 cells lysate assessed as reduction of labeling of acyl-phosphate ATP probe at 100 nM; format: cell-free
[5] = target: T2, EKC/KEOPS complex subunit TP53RK (Homo sapiens) (UniProt Q96S44); experiment: Inhibition of human PRPK in HL-60 cells lysate assessed as reduction of labeling of acyl-phosphate ATP probe at 100 nM; format: cell-free
T2 sequence (whole entry): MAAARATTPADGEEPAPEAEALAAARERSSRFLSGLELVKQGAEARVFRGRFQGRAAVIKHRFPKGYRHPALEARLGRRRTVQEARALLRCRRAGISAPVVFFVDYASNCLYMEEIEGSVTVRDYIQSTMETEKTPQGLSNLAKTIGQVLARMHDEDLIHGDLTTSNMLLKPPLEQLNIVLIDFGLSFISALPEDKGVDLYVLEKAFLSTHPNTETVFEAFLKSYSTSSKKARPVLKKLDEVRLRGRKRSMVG

[6] = test system: HL-60; experiment: Inhibition of human Wnk1/Wnk2/Wnk3 in HL-60 cells lysate assessed as reduction of labeling of acyl-phosphate ATP probe at 100 nM
[7] = test system: HL-60; experiment: Inhibition of human Wnk1/Wnk2/Wnk4 in HL-60 cells lysate assessed as reduction of labeling of acyl-phosphate ATP probe at 100 nM
[8] = target: Serine/threonine-protein kinase 10 (Homo sapiens) (UniProt O94804); experiment: Inhibition of human LOK in HL-60 cells lysate assessed as reduction of labeling of acyl-phosphate ATP probe at 100 nM; format: cell-free
[9] = target: T3, Mitogen-activated protein kinase kinase kinase 3 (Homo sapiens) (UniProt Q99759); experiment: Inhibition of human MAP3K3 in HL-60 cells lysate assessed as reduction of labeling of acyl-phosphate ATP probe at 100 nM; format: cell-free
T3 sequence (whole entry): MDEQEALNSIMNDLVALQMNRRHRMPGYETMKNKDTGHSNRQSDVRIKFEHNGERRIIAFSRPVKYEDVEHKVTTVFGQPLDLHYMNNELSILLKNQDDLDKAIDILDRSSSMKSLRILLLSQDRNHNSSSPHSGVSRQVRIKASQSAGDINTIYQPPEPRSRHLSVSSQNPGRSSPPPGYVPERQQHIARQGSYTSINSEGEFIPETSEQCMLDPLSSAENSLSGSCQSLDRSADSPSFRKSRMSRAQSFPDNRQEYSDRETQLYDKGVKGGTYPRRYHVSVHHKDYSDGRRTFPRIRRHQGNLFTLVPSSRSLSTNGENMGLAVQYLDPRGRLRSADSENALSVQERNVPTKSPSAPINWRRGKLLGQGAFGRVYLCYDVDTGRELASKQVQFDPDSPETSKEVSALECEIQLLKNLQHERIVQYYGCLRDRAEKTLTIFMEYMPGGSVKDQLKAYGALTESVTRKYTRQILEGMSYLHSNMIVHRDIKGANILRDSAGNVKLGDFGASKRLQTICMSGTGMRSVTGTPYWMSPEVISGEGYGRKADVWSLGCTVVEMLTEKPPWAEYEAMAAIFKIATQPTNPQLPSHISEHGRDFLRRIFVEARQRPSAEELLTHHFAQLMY

[10] = target: Mitogen-activated protein kinase kinase kinase kinase 4 (Homo sapiens) (UniProt O95819); experiment: Inhibition of human ZC1/HGK in HL-60 cells lysate assessed as reduction of labeling of acyl-phosphate ATP probe at 100 nM; format: cell-free
[11] = target: Tyrosine-protein kinase HCK (Homo sapiens) (UniProt P08631); experiment: Inhibition of human HCK in HL-60 cells lysate assessed as reduction of labeling of acyl-phosphate ATP probe at 100 nM; format: cell-free
[12] = target: Tyrosine-protein kinase JAK1 (Homo sapiens) (UniProt P23458); experiment: Inhibition of human JAK1 domain1 in HL-60 cells lysate assessed as reduction of labeling of acyl-phosphate ATP probe at 100 nM; format: cell-free
[13] = test system: Staphylococcus aureus; experiment: Antibacterial activity against Staphylococcus aureus Smith; format: ADME, organism-based
[14] = target: Mitogen-activated protein kinase 14 (Homo sapiens) (UniProt Q16539); experiment: Inhibition of human P38alpha in HL-60 cells lysate assessed as reduction of labeling of acyl-phosphate ATP probe at 100 nM; format: cell-free
[15] = target: Cyclin-dependent kinase 5 (Homo sapiens) (UniProt Q00535); experiment: Inhibition of human CDK5 in HL-60 cells lysate assessed as reduction of labeling of acyl-phosphate ATP probe at 100 nM; format: cell-free
[16] = target: Mitogen-activated protein kinase 7 (Homo sapiens) (UniProt Q13164); experiment: Inhibition of human Erk5 in HL-60 cells lysate assessed as reduction of labeling of acyl-phosphate ATP probe at 100 nM; format: cell-free
[17] = test system: HL-60; experiment: Inhibition of human P38delta/P38gamma in HL-60 cells lysate assessed as reduction of labeling of acyl-phosphate ATP probe at 100 nM

Tyrosine-protein kinase HCK (Homo sapiens), sequence (P08631 2-526 limits assumed): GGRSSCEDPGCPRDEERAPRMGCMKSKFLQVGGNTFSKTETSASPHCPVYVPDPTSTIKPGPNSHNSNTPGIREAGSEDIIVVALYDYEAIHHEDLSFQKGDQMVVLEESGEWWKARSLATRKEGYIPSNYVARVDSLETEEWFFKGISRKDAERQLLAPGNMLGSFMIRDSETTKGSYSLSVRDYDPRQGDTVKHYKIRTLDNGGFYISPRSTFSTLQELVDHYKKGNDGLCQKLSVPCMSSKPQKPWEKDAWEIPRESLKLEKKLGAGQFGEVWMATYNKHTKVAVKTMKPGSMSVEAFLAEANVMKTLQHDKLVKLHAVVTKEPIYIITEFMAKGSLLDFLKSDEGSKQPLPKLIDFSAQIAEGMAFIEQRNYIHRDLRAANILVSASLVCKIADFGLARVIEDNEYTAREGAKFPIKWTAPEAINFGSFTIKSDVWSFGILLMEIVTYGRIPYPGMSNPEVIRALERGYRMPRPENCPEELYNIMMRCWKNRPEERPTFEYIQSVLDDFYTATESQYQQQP
Serine/threonine-protein kinase 10 (Homo sapiens), sequence (O94804 whole entry, looked up): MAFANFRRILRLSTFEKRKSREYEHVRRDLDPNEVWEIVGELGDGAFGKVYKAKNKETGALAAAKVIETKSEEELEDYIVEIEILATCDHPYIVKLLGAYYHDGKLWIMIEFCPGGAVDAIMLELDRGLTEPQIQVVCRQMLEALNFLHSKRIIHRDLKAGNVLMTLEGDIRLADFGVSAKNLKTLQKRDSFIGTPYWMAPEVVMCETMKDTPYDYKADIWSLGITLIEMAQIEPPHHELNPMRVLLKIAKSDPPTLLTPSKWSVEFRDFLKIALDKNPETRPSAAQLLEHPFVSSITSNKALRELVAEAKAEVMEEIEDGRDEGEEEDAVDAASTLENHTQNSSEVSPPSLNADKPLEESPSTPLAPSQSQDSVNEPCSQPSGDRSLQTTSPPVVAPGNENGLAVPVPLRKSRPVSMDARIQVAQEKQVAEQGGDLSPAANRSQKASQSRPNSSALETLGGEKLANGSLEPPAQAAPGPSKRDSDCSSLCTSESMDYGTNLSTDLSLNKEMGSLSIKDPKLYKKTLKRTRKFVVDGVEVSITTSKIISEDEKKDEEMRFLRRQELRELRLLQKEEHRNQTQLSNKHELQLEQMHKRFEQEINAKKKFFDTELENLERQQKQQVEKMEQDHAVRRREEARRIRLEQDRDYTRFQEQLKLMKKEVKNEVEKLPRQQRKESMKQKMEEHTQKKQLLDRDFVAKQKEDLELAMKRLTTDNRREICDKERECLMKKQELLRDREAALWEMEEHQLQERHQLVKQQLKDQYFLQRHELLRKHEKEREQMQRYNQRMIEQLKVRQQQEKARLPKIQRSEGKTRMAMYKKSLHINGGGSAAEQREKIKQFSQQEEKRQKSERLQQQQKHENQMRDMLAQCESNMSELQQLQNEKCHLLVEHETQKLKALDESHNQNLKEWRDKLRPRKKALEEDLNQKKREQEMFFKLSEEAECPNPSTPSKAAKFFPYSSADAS
Serine/threonine-protein kinase SMG1 (Homo sapiens), sequence (Q96Q15 whole entry): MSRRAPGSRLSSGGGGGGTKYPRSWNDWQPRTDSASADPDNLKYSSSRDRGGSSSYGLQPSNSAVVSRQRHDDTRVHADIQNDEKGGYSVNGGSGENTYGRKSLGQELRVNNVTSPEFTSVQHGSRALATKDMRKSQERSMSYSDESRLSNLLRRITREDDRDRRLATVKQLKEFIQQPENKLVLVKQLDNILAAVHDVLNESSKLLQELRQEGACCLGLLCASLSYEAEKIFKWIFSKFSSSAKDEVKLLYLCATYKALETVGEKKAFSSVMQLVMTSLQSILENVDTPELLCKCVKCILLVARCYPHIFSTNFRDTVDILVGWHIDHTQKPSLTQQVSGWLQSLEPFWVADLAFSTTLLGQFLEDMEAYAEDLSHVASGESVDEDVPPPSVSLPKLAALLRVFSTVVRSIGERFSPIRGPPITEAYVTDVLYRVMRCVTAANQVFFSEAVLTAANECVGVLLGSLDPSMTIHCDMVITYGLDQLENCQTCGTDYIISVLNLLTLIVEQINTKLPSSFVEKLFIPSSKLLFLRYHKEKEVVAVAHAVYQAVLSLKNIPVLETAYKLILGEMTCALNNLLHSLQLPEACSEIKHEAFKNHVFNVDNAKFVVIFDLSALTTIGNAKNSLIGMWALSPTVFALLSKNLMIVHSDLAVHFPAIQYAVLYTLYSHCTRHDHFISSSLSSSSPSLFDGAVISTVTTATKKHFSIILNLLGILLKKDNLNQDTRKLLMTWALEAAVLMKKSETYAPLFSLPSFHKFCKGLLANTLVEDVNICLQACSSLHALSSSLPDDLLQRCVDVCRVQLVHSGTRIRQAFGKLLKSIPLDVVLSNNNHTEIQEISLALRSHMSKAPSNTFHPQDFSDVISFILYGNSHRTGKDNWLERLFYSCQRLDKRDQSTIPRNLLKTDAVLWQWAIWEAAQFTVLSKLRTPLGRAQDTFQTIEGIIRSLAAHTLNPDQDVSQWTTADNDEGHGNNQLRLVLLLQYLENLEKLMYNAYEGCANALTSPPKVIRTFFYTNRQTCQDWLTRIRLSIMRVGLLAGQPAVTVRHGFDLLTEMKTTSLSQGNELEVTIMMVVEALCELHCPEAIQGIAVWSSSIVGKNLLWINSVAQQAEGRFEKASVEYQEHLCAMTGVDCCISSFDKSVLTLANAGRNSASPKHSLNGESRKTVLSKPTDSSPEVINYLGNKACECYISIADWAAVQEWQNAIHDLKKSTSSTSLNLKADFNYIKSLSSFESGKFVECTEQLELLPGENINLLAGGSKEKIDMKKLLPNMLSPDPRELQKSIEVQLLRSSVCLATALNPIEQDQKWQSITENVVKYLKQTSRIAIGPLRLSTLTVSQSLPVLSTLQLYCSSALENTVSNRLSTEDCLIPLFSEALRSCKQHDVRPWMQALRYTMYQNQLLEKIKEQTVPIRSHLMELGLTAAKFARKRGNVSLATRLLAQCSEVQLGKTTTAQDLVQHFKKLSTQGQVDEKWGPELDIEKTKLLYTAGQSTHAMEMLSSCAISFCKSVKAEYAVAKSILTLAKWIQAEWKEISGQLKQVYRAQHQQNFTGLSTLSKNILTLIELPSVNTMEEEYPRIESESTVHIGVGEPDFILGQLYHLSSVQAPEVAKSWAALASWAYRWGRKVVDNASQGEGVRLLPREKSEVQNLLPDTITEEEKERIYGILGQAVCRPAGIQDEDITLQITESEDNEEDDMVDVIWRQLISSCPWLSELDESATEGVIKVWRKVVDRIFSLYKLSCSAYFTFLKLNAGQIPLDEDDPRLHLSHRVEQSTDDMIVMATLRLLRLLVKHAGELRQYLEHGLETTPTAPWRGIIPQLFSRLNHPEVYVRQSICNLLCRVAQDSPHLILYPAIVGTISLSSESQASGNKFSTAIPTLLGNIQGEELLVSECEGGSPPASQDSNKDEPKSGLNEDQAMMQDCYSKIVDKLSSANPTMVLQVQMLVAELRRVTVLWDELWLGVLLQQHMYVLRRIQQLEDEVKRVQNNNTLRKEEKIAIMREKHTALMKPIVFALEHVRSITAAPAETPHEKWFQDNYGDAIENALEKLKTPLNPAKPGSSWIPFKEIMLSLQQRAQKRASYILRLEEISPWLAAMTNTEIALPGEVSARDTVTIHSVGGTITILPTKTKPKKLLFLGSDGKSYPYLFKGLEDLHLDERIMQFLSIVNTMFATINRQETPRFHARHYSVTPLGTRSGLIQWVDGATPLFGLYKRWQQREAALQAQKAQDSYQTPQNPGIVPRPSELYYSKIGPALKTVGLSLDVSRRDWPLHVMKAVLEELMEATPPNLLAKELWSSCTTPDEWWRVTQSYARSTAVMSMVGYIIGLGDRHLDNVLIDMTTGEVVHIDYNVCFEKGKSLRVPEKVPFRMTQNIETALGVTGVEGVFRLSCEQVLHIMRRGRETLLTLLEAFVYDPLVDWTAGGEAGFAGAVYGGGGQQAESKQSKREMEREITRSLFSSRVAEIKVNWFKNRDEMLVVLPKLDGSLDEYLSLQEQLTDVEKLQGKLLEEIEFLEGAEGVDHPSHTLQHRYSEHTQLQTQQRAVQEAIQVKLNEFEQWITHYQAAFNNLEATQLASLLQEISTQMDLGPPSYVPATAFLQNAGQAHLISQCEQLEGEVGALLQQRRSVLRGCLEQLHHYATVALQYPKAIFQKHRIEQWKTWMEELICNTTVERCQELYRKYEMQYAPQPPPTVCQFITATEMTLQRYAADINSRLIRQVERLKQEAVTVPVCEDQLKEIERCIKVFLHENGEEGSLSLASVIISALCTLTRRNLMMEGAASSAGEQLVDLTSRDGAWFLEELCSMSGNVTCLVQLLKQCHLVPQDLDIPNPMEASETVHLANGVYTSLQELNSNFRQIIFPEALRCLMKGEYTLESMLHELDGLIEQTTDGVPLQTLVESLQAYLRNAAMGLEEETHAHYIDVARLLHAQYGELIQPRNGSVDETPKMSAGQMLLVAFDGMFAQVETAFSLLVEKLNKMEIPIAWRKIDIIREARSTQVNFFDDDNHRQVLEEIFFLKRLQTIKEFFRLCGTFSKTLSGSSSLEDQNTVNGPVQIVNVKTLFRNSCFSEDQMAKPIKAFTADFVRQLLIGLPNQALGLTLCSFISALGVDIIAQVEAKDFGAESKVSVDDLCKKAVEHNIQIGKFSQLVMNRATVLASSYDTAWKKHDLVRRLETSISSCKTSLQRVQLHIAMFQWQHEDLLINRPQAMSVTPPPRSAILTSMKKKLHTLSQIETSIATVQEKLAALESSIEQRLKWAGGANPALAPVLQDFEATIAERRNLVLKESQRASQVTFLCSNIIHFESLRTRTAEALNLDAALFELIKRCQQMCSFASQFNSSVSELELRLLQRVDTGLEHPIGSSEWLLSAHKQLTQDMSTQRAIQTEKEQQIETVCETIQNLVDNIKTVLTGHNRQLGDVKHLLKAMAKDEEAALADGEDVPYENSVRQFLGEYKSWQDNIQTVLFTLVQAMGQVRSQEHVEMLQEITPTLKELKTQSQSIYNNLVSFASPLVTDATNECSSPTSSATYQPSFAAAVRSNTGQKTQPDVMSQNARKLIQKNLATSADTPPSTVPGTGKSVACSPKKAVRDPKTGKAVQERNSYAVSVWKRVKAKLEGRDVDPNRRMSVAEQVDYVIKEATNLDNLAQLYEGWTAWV

Row | Structure (SMILES) | inhibition [1] [%] | inhibition [2] [%] | inhibition [3] [%] | inhibition [4] [%] | inhibition [5] [%] | inhibition at 0.1 µM [6] [%] | inhibition at 0.1 µM [7] [%] | inhibition [8] [%] | inhibition [9] [%] | inhibition [10] [%] | inhibition [11] [%] | inhibition [12] [%] | MIC [13] [µM] | inhibition [14] [%] | inhibition [15] [%] | inhibition [16] [%] | inhibition at 0.1 µM [17] [%]
1 | C[C@H]1COc2c(NCCCc3ccccn3)c(F)c(N)c3c(=O)c(C#N)cn1c23 | < 35 | < 35 | < 35 | < 35 | < 35 | < 35 | < 35 | < 35 | < 35 | < 35 | < 35 | < 35 | > 298 | < 35 | < 35 | < 35 | < 35
2 | C[C@H]1COc2c(NCCCc3ccccn3)c(F)c(N)c3c(=O)c(C(=O)O)cn1c23 | < 35 | < 35 | < 35 | < 35 | < 35 | < 35 | < 35 | < 35 | < 35 | < 35 | < 35 | < 35 | 2 (≈ 0.825 µg/mL) | < 35 | < 35 | < 35 | < 35
3 | C[C@H]1COc2c(NCCCn3cccn3)c(F)c(N)c3c(=O)c(C(=O)O)cn1c23 | < 35 | < 35 | < 35 | < 35 | < 35 | < 35 | < 35 | < 35 | < 35 | < 35 | < 35 | < 35 | 2 (≈ 0.803 µg/mL) | < 35 | < 35 | < 35 | < 35
4 | C[C@H]1COc2c(NCCCn3cccn3)c(F)c(N)c3c(=O)c(C#N)cn1c23 | < 35 | < 35 | < 35 | < 35 | < 35 | < 35 | < 35 | < 35 | < 35 | < 35 | < 35 | < 35 | > 306 | < 35 | < 35 | < 35 | < 35
